# Measured values published in patent publication US9650395B2, “Antibacterial compounds and methods for use” (PTC Therapeutics, Inc., priority 2011, dated 2017).
# Where a name gives a salt, the structure may show the parent alone. Read-outs that look alike come from different tables or passages of the source.
# Tests used:
# [1] = tested on: super sensitive Gram-negative Escherichia coli (E. coli) BAS849; assay: Antibacterial activity, microbroth dilution MIC, E. coli BAS849; format: cell-based; settings: Escherichia coli, read-out: MIC, BAS849
# [2] = tested on: control Gram-negative E. coli 25922 strain; assay: Antibacterial activity, microbroth dilution MIC, E. coli 25922; format: cell-based, Escherichia coli; settings: Escherichia coli; E. coli 25922, microbroth dilution; read-out: MIC, 25922
# [3] = tested on: Gram-positive Staphylococcus aureus (S. aureus) 29213; assay: Antibacterial activity, microbroth dilution MIC, S. aureus 29213; format: cell-based; settings: Staphylococcus aureus; S. aureus 29213, microbroth dilution; read-out: MIC, 29213
# [4] = tested on: quinolone resistant E. coli LZ3111; assay: Antibacterial activity, MIC, quinolone resistant E. coli LZ3111; format: cell-based, Escherichia coli; settings: Escherichia coli, read-out: MIC, LZ3111
# From the text: The antibacterial activity from a microbroth dilution method may be presented as the minimum inhibitory concentration (MIC in […]). The MIC value is the lowest concentration of a drug which prevents macroscopically visible bacterial growth under test conditions.
# Mutations in these regions are known to confer a high level resistance to the quinolone class of antibiotics.
# [5] = E. coli BAS849, microbroth dilution
Structure (SMILES),"MIC [1, 5]",MIC [2],MIC [3],MIC [4],MIC [1]
"CCc1cc(C(=O)O)c(=O)[nH]c1-c1ccc(OC)cc1F [Cpd 30, 5-ethyl-6-(2-fluoro-4-methoxyphenyl)-2-oxo-1,2-dihydropyridine-3-carboxylic acid]",1 to 3.5 mg/L,12.5 to 150 mg/L,12.5 to 150 mg/L,12.5 to 150 mg/L,–
"CCc1c(-c2c(OC)cc(OC)cc2OC)[nH]c(=O)c(C(=O)O)c1O [Cpd 41, 5-ethyl-4-hydroxy-2-oxo-6-(2,4,6-trimethoxyphenyl)-1,2-dihydropyridine-3-carboxylic acid]",12.5 to 150 mg/L,12.5 to 150 mg/L,12.5 to 150 mg/L,12.5 to 150 mg/L,–
"CCc1cc(C(=O)O)c(=O)[nH]c1-c1ccc(N2Cc3ccccc3C2)cc1 [Cpd 162, 6-[4-(1,3-dihydro-2H-isoindol-2-yl)phenyl]-5-ethyl-2-oxo-1,2-dihydropyridine-3-carboxylic acid]",3.5 to 12.5 mg/L,12.5 to 150 mg/L,12.5 to 150 mg/L,–,–
"CCc1cc(C(=O)O)c(=O)[nH]c1-c1ccc(N2CC(N)C2)cc1 [Cpd 170, 6-[4-(3-aminoazetidin-1-yl)phenyl]-5-ethyl-2-oxo-1,2-dihydropyridine-3-carboxylic acid]",12.5 to 150 mg/L,12.5 to 150 mg/L,12.5 to 150 mg/L,–,–
"CCc1cc(C(=O)O)c(=O)[nH]c1-c1ccc(N2CC(NC(=O)OCc3ccccc3)C2)cc1 [Cpd 171, 6-[4-(3-{[(benzyloxy)carbonyl]amino}azetidin-1-yl)phenyl]-5-ethyl-2-oxo-1,2-dihydropyridine-3-carboxylic acid]",3.5 to 12.5 mg/L,12.5 to 150 mg/L,12.5 to 150 mg/L,–,–
"CCc1cc(C(=O)O)c(=O)[nH]c1-c1ccc(N2CCC(N(CC)CC)C2)cc1.O=C(O)C(F)(F)F (centres unmarked) [Cpd 172, 6-{4-[3-(diethylamino)pyrrolidin-1-yl]phenyl}-5-ethyl-2-oxo-1,2-dihydropyridine-3-carboxylic acid trifluoroacetate]",–,3.5 to 12.5 mg/L,12.5 to 150 mg/L,–,< 1 mg/L
"CCc1cc(C(=O)O)c(=O)[nH]c1-c1ccc(N2C[C@@H]3[C@H](C2)[C@H]3N(Cc2ccccc2)Cc2ccccc2)cc1 [Cpd 176, 6-{4-[(1R,5S,6s)-6-(dibenzylamino)-3-azabicyclo[3.1.0]hex-3-yl]phenyl}-5-ethyl-2-oxo-1,2-dihydropyridine-3-carboxylic acid hydrochloride]",12.5 to 150 mg/L,12.5 to 150 mg/L,12.5 to 150 mg/L,–,–
"CCc1cc(C(=O)O)c(=O)[nH]c1-c1ccc(N2CC3OCCN(Cc4ccccc4)C3C2)cc1.O=C(O)C(F)(F)F (centres unmarked) [Cpd 180, 6-[4-(4-benzylhexahydropyrrolo[3,4-b][1,4]oxazin-6(2H)-yl)phenyl]-5-ethyl-2-oxo-1,2-dihydropyridine-3-carboxylic acid trifluoroacetate]",–,12.5 to 150 mg/L,12.5 to 150 mg/L,–,1 to 3.5 mg/L
"CCc1cc(C(=O)O)c(=O)[nH]c1-c1ccc(N2CCC(CN(Cc3ccccc3)Cc3ccccc3)C2)cc1.O=C(O)C(F)(F)F (centres unmarked) [Cpd 181, 6-(4-{3-[(dibenzylamino)methyl]pyrrolidin-1-yl}phenyl)-5-ethyl-2-oxo-1,2-dihydropyridine-3-carboxylic acid trifluoroacetate]",–,12.5 to 150 mg/L,12.5 to 150 mg/L,–,3.5 to 12.5 mg/L
"CCc1cc(C(=O)O)c(=O)[nH]c1-c1ccc(N2CCO[C@H]3CNC[C@H]32)cc1.O=C(O)C(F)(F)F [Cpd 186, 5-ethyl-6-{4-[(4aR,7aS)-hexahydropyrrolo[3,4-b][1,4]oxazin-4(4aH)-yl]phenyl}-2-oxo-1,2-dihydropyridine-3-carboxylic acid trifluoroacetate]",–,12.5 to 150 mg/L,12.5 to 150 mg/L,–,12.5 to 150 mg/L
"CCc1cc(C(=O)O)c(=O)[nH]c1-c1ccc(N2C[C@H]3CCN(Cc4ccccc4)[C@H]3C2)cc1.O=C(O)C(F)(F)F [Cpd 189, 6-{4-[(3aR,6aR)-1-benzylhexahydropyrrolo[3,4-b]pyrrol-5(1H)-yl]phenyl}-5-ethyl-2-oxo-1,2-dihydropyridine-3-carboxylic acid trifluoroacetate]",–,3.5 to 12.5 mg/L,12.5 to 150 mg/L,–,< 1 mg/L
"C=CCN(CC=C)c1ccc(-c2[nH]c(=O)c(C(=O)O)cc2CC)cc1 [Cpd 299, 6-{4-[di(prop-2-en-1-yl)amino]phenyl}-5-ethyl-2-oxo-1,2-dihydropyridine-3-carboxylic acid]",1 to 3.5 mg/L,12.5 to 150 mg/L,12.5 to 150 mg/L,–,–
"CCc1cc(C(=O)O)c(=O)[nH]c1-c1ccc(N2C[C@@H](O)[C@@H](O)C2)cc1 [Cpd 303, 6-{4-[(3R,4S)-3,4-dihydroxypyrrolidin-1-yl]phenyl}-5-ethyl-2-oxo-1,2-dihydropyridine-3-carboxylic acid]",< 1 mg/L,12.5 to 150 mg/L,12.5 to 150 mg/L,–,–
"CCc1cc(C(=O)O)c(=O)[nH]c1-c1ccc(N(C)C)s1 [Cpd 305, 6-[5-(dimethylamino)thiophen-2-yl]-5-ethyl-2-oxo-1,2-dihydropyridine-3-carboxylic acid]",< 1 mg/L,12.5 to 150 mg/L,12.5 to 150 mg/L,–,–
"CCc1c(-c2ccc(N3CCCC3)s2)[nH]c(=O)c(C(=O)O)c1O [Cpd 307, 5-ethyl-4-hydroxy-2-oxo-6-[5-(pyrrolidin-1-yl)thiophen-2-yl]-1,2-dihydropyridine-3-carboxylic acid]",< 1 mg/L,12.5 to 150 mg/L,3.5 to 12.5 mg/L,–,–
"CCc1cc(C(=O)O)c(=O)[nH]c1-c1ccc(N2CCCCC2)s1 [Cpd 308, 5-ethyl-2-oxo-6-[5-(piperidin-1-yl)thiophen-2-yl]-1,2-dihydropyridine-3-carboxylic acid]",1 to 3.5 mg/L,12.5 to 150 mg/L,12.5 to 150 mg/L,–,–
"CCc1c(-c2ccc(N3CCCCC3)s2)[nH]c(=O)c(C(=O)O)c1O [Cpd 309, 5-ethyl-4-hydroxy-2-oxo-6-[5-(piperidin-1-yl)thiophen-2-yl]-1,2-dihydropyridine-3-carboxylic acid]",< 1 mg/L,12.5 to 150 mg/L,3.5 to 12.5 mg/L,–,–
"CCc1cc(C(=O)O)c(=O)[nH]c1-c1ccc(OC(C)(C)C)cc1 [Cpd 311, 6-(4-tert-butoxyphenyl)-5-ethyl-2-oxo-1,2-dihydropyridine-3-carboxylic acid]",3.5 to 12.5 mg/L,12.5 to 150 mg/L,12.5 to 150 mg/L,–,–
"CCc1cc(C(=O)O)c(=O)[nH]c1-c1ccnn1C [Cpd 344, 5-ethyl-6-(1-methyl-1H-pyrazol-5-yl)-2-oxo-1,2-dihydropyridine-3-carboxylic acid]",12.5 to 150 mg/L,12.5 to 150 mg/L,12.5 to 150 mg/L,–,–
"CCc1c(-c2ccnn2C)[nH]c(=O)c(C(=O)O)c1O [Cpd 345, 5-ethyl-4-hydroxy-6-(1-methyl-1H-pyrazol-5-yl)-2-oxo-1,2-dihydropyridine-3-carboxylic acid]",12.5 to 150 mg/L,12.5 to 150 mg/L,12.5 to 150 mg/L,–,–
"CCc1cc(C(=O)O)c(=O)[nH]c1-c1cnn(C)c1 [Cpd 346, 5-ethyl-6-(1-methyl-1H-pyrazol-4-yl)-2-oxo-1,2-dihydropyridine-3-carboxylic acid]",12.5 to 150 mg/L,12.5 to 150 mg/L,12.5 to 150 mg/L,–,–
"CCc1c(-c2cnn(C)c2)[nH]c(=O)c(C(=O)O)c1O [Cpd 347, 5-ethyl-4-hydroxy-6-(1-methyl-1H-pyrazol-4-yl)-2-oxo-1,2-dihydropyridine-3-carboxylic acid]",1 to 3.5 mg/L,3.5 to 12.5 mg/L,12.5 to 150 mg/L,–,–
